Laboratory results as given in PMC11931052, “Efficacy of dispirotripiperazine PDSTP in a golden Syrian hamster model of SARS-CoV-2 infection” (Frontiers in Microbiology, 2025).

How the values were obtained:
[1] = system: SARS-CoV-2 ancestral PV10734 strain; assay: Yield reduction assay in Calu-3 cells, SARS-CoV-2 ancestral PV10734 strain; type: cell-based; conditions: PDSTP 20 and 4 μM, day 3 post-infection, p < 0.0001
SARS-COV-2 PV10734 = assay: Time-of-addition and cell pre-treatment assay in Vero cells; type: cell-based
[2] = system: bone marrow, liver, kidney and spleen cells; assay: DNA damage accounting test (DNA Comet); type: in vivo, F1 hybrids of SWAxC57BL/6 mice; conditions: 400 mg/kg and 1000 mg/kg topically
Protocol: PDSTP doses tested: 400 mg/kg and 1000 mg/kg
Test subjects: F1 hybrids of SWAxC57BL/6 mice.
Method of administration: topically.

Structure (SMILES): Cc1nc(N2CC[N+]3(CC2)CC[N+]2(CCNCC2)CC3)c([N+](=O)[O-])c(N2CC[N+]3(CC2)CC[N+]2(CCNCC2)CC3)n1.Cl.Cl.O.O.O.O.O.O.O.O.O.[Cl-].[Cl-].[Cl-].[Cl-] [PDSTP, 3,3′-(2-methyl-5-nitropyrimidine-4,6-diyl)bis-3,12-diaza-6,9-diazonia-dispiro[5.2.5.2]hexadecane tetrachloride dihydrochloride nonahydrate]
- Reduction of viral titer [1]: ~100 fold
- Antiviral activity, pre-treatment and early stages of infection (SARS-COV-2 PV10734): exhibited antiviral activity
- Inhibitory effect at the later stages of infection (SARS-COV-2 PV10734): barely noticeable
- Induction of DNA damage (DNA Comet) [2]: does not induce DNA damage
